Laboratory results published in US9000028B2, “Indole and indazole compounds as an inhibitor of cellular necrosis” (LG Life Sciences Ltd., priority 2007, dated 2015).
Where two headings read alike, the source gives them in different places.

Test system: primary hepatocytes isolated from rats
Assay: Hepatocyte protective effect against substances deriving hepatocyte toxicity (WST-1 viability)
Assay type: cell-based
Conditions: doxorubicin, 24-48 h, read-out: EC50, cell protective effects against doxorubicin in hepatocytes
Method: Various endogenous/exogenous attacks on the cells trigger the mechanisms of cell death which is broadly classified into two types, i.e. apoptosis or necrosis. Using these cell death mechanisms, in the present experimental example, primary hepatocytes isolated from rats were treated with drugs which were clinically shown to result in serious side-effects of hepatocyte toxicity or various chemicals which derive cell death, and the compounds synthesized in the Examples were estimated for their hepatocyte protective effects, after 24-48 h. The substances used to derive hepatocyte death include CCl4, ActD, H2O2, doxorubicin, anti-Fas Ab/Actinomycin D, acetaminophen, EtOH, CdCl2, palmitate, stearate, cyclophosphamide, terfenadine, diclofenac, simvastatin, and adefovir. Primary hepatocytes were isolated using the method of Seglen PO (Experimental Cell Research 74 (1972) pp 450-454). Briefly, hepatocytes were isolated according to the two-step collagenase perfusion method, and dead cells were removed by low speed (500 rpm) centrifugation for 10 min using percoll gradient (Kreamer B L etc, In Vitro Cellular & Developmental Biology 22 (1986) pp 201-211). During this step, the viability of cells was maintained 90% or above. The cells were suspended in HepatoZYME media (Gibco BRL), and the number of cells was counted. 1.5×10^4 cells in 100 μl were placed into the collagen-coated 96-well plate (BD biocoat), and adhered on the bottom for 3-4 h.
In order to assess the hepatocyte protective effect, above adhered cells were pretreated with the Example compounds for 30 min. At this time, the concentration of the Example compounds were serially diluted by 2-fold or 3-fold over 5 steps starting from 30 uM, 10 uM or 1 uM depending on the experiments, and the final concentration of DMSO was adjusted to 0.2%. 30 min after the treatment by compounds, cells were treated by the substances deriving hepatocyte death or hepatotoxic drugs at the concentrations indicated in Table 1. After 24-48 h, the viability of cells was determined to estimate the hepatocyte protective effects. The viability of cells was determined using WST-1 (MK-400, […]) method by the absorbance at 440 nm. Hepatocyte protective effects of the Example compounds were represented by “EC50,” which was calculated from measured values. “EC50” herein means the concentration of the compound at which 50% of maximum protective effect is observed in the experiment.

SMILES	EC50 (Rattus norvegicus, Hepatocyte) [µM]	EC50 (rat primary hepatocytes) [µM]
OCc1ccccc1-c1cc2cc(Cl)cc(NC3CCCC3)c2[nH]1 [Example 133, [2-(5-Chloro-7-cyclopentylamino-1H-indol-2-yl)-phenyl]-methanol]	0.15	–
Clc1cc(NC2CCOCC2)c2[nH]c(-c3cccc(CN4CCOCC4)c3)cc2c1 [Example 148, [5-Chloro-2-(3-morpholin-4-ylmethylphenyl)-1H-indol-7-yl]-(tetrahydropyran-4-yl)-amine]	0.16	–
Cc1cc(NC2CCOCC2)c2[nH]ncc2c1 [Example 156, (5-Methyl-1H-indazol-7-yl)-(tetrahydropyran-4-yl)-amine]	> 10	–
OCCc1ccc(-c2cc3cc(Cl)cc(NC4CCOCC4)c3[nH]2)cc1 [Example 137, 2-{4-[5-Chloro-7-(tetrahydropyran-4-yl)amino-1H-indol-2-yl]phenyl}-ethanol]	0.16	–
CC(=O)Nc1ccc(-c2cc3cc(N4CCS(=O)(=O)CC4)cc(NC4CCOCC4)c3[nH]2)cc1 [Example 89, (Tetrahydropyran-4-yl)-{5-(1,1-dioxo-thiomorpholin-4-yl)-2-[4-(acetyl)aminophenyl]-1H-indol-7-yl}-amine]	0.3	–
COC(=O)c1cccc(-c2cc3cc(Cl)cc(NC4CCCC4)c3[nH]2)c1 [Example 123, 3-(7-Cyclopentylamino-5-chloro-1H-indol-2-yl)-benzoic acid methyl ester]	0.19	–
c1ccc(Oc2cc(NC3CCCC3)c3[nH]c(-c4ccccn4)cc3c2)cc1 [Example 9, Cyclopentyl-[5-phenoxy-2-(pyridin-2-yl)-1H-indol-7-yl]-amine]	0.2	–
CC(=O)Nc1ccc(-c2cc3cc(CN4CCS(=O)(=O)CC4)cc(NC4CCCC4)c3[nH]2)cc1 [Example 85, Cyclopentyl-{5-(1,1-dioxo-thiomorpholin-4-yl)methyl-2-[4-(acetyl)aminophenyl]-1H-indol-7-yl}-amine]	0.36	–
O=C(O)Cc1ccc(-c2cc3cc(Cl)cc(NC4CCCC4)c3[nH]2)cc1 [Example 140, 2-[4-(5-Chloro-7-cyclopentylamino-1H-indol-2-yl)phenyl]-acetic acid]	0.13	–
c1ccc(-c2cc3cccc(NC4CCOCC4)c3[nH]2)nc1 [Example 8, (Tetrahydropyran-4-yl)-[2-(pyridin-2-yl)-1H-indol-7-yl]-amine]	2.5	–
c1cc(NC2CCOCC2)c2[nH]ncc2c1 [Example 154, (Tetrahydropyran-4-yl)-(1H-indazol-7-yl)-amine]	4.2	–
COc1ccc(-c2n[nH]c3c(NC4CCOCC4)cccc23)cc1 [Example 158]	–	2.77
O=C(Nc1ccccc1)N1CCC(Nc2cc(Cl)cc3cc(-c4ccccc4)[nH]c23)CC1 [Example 94, 4-(5-Chloro-2-phenyl-1H-indol-7-yl)amino-piperidin-1-yl-carboxylic acid phenylamide]	0.08	–
CCOc1cc(NC2CCCC2)c2[nH]c(-c3ccccn3)cc2c1 [Example 10, Cyclopentyl-[5-ethoxy-2-(pyridin-2-yl)-1H-indol-7-yl]-amine]	0.2	–
CCOC(=O)Cc1cc(NC2CCCC2)c2[nH]c(-c3ccccc3)cc2c1 [Example 31, 2-[7-(Cyclopentyl)amino-2-phenyl-1H-indol-5-yl]-acetic acid ethyl ester]	0.16	–
Cc1cc(NC2CCCC2)c2[nH]c(-c3cnccn3)cc2c1 [Example 6, Cyclopentyl-[5-methyl-2-(pyrazin-2-yl)-1H-indol-7-yl]-amine]	0.3	–
O=C(O)C1CCC(Nc2cc(Cl)cc3cc(-c4ccccc4)[nH]c23)CC1 (stereo not shown) [Example 102, 4-(5-Chloro-2-phenyl-1H-indol-7-yl)amino-cyclohexane-1-carboxylic acid]	0.3	–
Clc1cc(NCC2CCCC2)c2[nH]c(-c3ccccc3)cc2c1 [Example 49, Cyclopentylmethyl-(5-chloro-2-phenyl-1H-indol-7-yl)-amine]	0.133	–
O=C1CN(Cc2c(-c3ccccc3)[nH]c3c(NC4CCCC4)cc(Cl)cc23)CCN1 [Example 70, Cyclopentyl-(5-chloro-3-(2-oxo-piperazin-4-yl)methyl-2-phenyl-1H-indol-7-yl)-amine]	0.256	–
OCCN1CCC(Nc2cc(F)cc3cc(-c4ccccc4)[nH]c23)CC1 [Example 60, 2-[4-[(5-Fluoro-2-phenyl-1H-indol-7-yl)amino]piperidin-1-yl]ethanol]	0.17	–

SMILES	EC50 (Rattus norvegicus, Hepatocyte) [µM]	EC50 (rat primary hepatocytes) [µM]
O=S1(=O)CCN(Cc2cc(NC3CCOCC3)c3[nH]cc(-c4ccccc4)c3c2)CC1 [Example 161, (Tetrahydropyran-4-yl)-[5-(1,1-dioxo-thiomorpholin-4-yl)methyl-3-phenyl-1H-indol-7-yl)-amine]	0.36	–
O=C(O)C[C@@H]1CSC(c2cc(NC3CCCC3)c3[nH]c(-c4ccccc4)cc3c2)=N1 [Example 121, 2-[(R)-2-(7-cyclopentylamino-2-phenyl-1H-indol-5-yl)-4,5-dihydro-thiazol-4-yl]-acetic acid]	0.2	–
Cc1cc(NC2CCN(Cc3ccccc3)C2)c2[nH]c(-c3ccccn3)cc2c1 (stereo not shown) [Example 14, (1-Benzylpyrrolidin-3-yl)[5-methyl-2-(pyridin-2-yl)-1H-indol-7-yl]-amine]	0.3	–
Cc1cc(NC2CCNCC2)c2[nH]c(-c3ccccc3)cc2c1 [Example 90, (5-Methyl-2-phenyl-1H-indol-7-yl)-piperidin-4-yl-amine]	0.146	–
Cc1cc(NC2CCC(=O)CC2)c2[nH]c(-c3ccccn3)cc2c1 [Example 20, (1-Cyclohexanon-4-yl)-[5-methyl-2-(pyridin-2-yl)-1H-indol-7-yl]-amine]	0.3	–
Clc1cc(NC2CCC3(CC2)OCCO3)c2[nH]c(-c3ccccc3)cc2c1 [Example 53, (1,4-Dioxaspiro[4.5]decan-8-yl)-(5-chloro-2-phenyl-1H-indol-7-yl)-amine]	0.04	–
Cc1cc(N(C)C)c2[nH]c(-c3ccccn3)cc2c1 [Example 17, Dimethyl-[5-methyl-2-(pyridin-2-yl)-1H-indol-7-yl]-amine]	0.54	–
O=C(O)CNc1cc(Oc2ccccc2)cc2cc(-c3ccccc3)[nH]c12 [Example 109, 2-[(5-Phenoxy-2-phenyl-1H-indol-7-yl)amino]-acetic acid]	0.257	–
CN1CCC(Nc2ccc(-c3cc4cc(Cl)cc(NC5CCCC5)c4[nH]3)cc2)CC1 [Example 83, Cyclopentyl-{5-chloro-2-[4-(1-methyl-piperidin-4-yl)aminophenyl]-1H-indol-7-yl}-amine]	0.05	–
Clc1cc(NC2CCCCC2)c2[nH]c(-c3ccccc3)cc2c1 [Example 47, Cyclohexyl-(5-chloro-2-phenyl-1H-indol-7-yl)-amine]	0.05	–
OCc1ccc(-c2cc3cc(Cl)cc(NC4CCCC4)c3[nH]2)cc1 [Example 136, [4-(5-Chloro-7-cyclopentylamino-1H-indol-2-yl)-phenyl]-methanol]	0.05	–
c1cc(NC2CCCC2)c2[nH]ncc2c1 [Example 153, Cyclopentyl-(1H-indazol-7-yl)-amine]	2.1	–
O=C(O)c1ccccc1-c1cc2cc(Cl)cc(NC3CCCC3)c2[nH]1 [Example 134, 2-(5-Chloro-7-cyclopentylamino-1H-indol-2-yl)-benzoic acid]	> 1	–
O=S1(=O)CCN(CCc2cccc(-c3cc4cc(Cl)cc(NC5CCOCC5)c4[nH]3)c2)CC1 [Example 152, {5-Chloro-2-[3-(1,1-dioxo-thiomorpholin-4-yl)ethylphenyl]-1H-indol-7-yl}-(tetrahydropyran-4-yl)-amine]	0.24	–
COc1ccc(-c2n[nH]c3c(NC4CCCC4)cccc23)cc1 [Example 157, Cyclopentyl-[3-(4-methoxyphenyl)-1H-indazol-7-yl)-amine]	0.9	–
Fc1cc(NC2CCN(C3CCOCC3)CC2)c2[nH]c(-c3ccccc3)cc2c1 [Example 61, [1-(Tetrahydropyran-4-yl)piperidin-4-yl]-(5-fluoro-2-phenyl-1H-indol-7-yl)amine]	0.26	–
O=C(O)Cc1ccc(-c2cc3cc(Cl)cc(NC4CCOCC4)c3[nH]2)cc1 [Example 141, 2-{4-[5-Chloro-7-(tetrahydropyran-4-yl)amino-1H-indol-2-yl]phenyl}-acetic acid]	0.46	–
Clc1cc(NCC2CCOCC2)c2[nH]c(-c3ccccc3)cc2c1 [Example 50, (Tetrahydropyran-4-ylmethyl)-(5-chloro-2-phenyl-1H-indol-7-yl)-amine]	0.043	–
O=C1CCC(Nc2cc(Cl)cc3cc(-c4ccccc4)[nH]c23)CC1 [Example 21, 4-[(5-Chloro-2-phenyl-1H-indol-7-yl)amino]-cyclohexan-1-one]	0.04	–
COC(=O)c1ccc(-c2cc3cc(Cl)cc(NC4CCCC4)c3[nH]2)cc1 [Example 142, 4-(5-Chloro-7-cyclopentylamino-1H-indol-2-yl)benzoic acid methyl ester]	0.05	–
